The target in assay [1] is T1, Ubiquitin carboxyl-terminal hydrolase 28 (Homo sapiens, UniProt Q96RU2).
T1 sequence (Q96RU2 whole entry): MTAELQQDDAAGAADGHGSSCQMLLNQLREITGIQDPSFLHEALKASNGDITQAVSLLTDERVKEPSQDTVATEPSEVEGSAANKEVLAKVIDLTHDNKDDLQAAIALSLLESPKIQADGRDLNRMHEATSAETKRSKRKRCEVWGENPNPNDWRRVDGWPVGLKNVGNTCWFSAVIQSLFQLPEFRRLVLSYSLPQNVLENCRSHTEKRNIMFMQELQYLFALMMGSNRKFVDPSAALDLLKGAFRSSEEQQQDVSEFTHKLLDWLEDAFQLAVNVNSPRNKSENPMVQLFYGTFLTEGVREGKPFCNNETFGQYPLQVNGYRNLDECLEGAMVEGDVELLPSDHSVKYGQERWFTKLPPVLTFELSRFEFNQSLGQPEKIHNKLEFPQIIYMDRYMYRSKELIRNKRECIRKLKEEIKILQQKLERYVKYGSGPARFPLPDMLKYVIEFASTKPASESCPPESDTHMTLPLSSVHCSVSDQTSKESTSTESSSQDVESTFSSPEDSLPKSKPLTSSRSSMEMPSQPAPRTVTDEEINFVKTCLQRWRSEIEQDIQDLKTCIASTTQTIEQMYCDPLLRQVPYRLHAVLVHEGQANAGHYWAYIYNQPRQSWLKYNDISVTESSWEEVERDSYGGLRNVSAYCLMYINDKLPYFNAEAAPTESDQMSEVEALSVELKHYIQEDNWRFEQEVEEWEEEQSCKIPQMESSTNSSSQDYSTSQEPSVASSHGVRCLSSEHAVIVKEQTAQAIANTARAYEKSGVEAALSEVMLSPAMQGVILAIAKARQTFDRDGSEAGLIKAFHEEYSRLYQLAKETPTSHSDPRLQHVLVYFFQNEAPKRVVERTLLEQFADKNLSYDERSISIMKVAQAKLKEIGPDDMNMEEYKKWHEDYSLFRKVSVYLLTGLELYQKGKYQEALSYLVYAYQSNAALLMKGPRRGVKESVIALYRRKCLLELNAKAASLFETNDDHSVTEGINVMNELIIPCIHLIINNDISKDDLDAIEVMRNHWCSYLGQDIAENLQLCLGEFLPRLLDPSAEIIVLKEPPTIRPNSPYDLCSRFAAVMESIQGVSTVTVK
The experiment in a line: Inhibition of TEV-cleavable hexa-histidine tagged USP28 (1 to 1077 residues) (unknown origin) using ubiquitin-rhodamine 110 as substrate and measured after 90 mins by fluorescence based assay.

Assay [2] addresses T2, Ubiquitin carboxyl-terminal hydrolase 25 (Homo sapiens, UniProt Q9UHP3).
T2 sequence (Q9UHP3 whole entry): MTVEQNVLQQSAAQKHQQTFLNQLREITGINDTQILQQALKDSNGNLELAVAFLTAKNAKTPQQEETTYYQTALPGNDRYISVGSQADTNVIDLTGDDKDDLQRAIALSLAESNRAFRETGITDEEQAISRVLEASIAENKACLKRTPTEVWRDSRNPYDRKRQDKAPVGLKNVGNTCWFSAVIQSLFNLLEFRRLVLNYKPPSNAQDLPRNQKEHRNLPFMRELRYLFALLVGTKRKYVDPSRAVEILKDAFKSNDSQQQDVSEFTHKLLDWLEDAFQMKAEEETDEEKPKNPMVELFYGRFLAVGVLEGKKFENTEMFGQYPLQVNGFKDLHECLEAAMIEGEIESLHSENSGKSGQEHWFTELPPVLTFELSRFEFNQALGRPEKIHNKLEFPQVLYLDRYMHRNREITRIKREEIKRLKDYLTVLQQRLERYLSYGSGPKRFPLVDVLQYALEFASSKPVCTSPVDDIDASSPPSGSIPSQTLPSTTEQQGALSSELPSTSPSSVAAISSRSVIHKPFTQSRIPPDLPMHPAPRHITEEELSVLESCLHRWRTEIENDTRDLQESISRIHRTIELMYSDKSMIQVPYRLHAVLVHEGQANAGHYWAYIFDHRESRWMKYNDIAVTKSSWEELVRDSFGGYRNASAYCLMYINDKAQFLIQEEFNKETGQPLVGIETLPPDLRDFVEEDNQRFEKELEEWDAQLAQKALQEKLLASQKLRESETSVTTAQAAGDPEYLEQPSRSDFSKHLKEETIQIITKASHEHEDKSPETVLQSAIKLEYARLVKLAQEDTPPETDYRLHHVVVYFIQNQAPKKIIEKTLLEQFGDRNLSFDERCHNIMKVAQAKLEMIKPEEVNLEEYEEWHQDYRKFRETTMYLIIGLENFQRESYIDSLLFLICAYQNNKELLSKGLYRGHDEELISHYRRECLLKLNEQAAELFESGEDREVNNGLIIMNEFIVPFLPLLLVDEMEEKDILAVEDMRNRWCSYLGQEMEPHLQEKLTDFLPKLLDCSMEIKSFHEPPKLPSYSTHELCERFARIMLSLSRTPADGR
Put plainly: Inhibition of recombinant C-terminal 6-His tagged human USP25 using ubiquitin-rhodamine 110 as substrate preincubated for 30 mins followed by substrate addition and measured after 45 mins by fluorescence based assay.

In ChEMBL document CHEMBL4476884, “Thienopyridine carboxamides as ubiquitin-specific protease inhibitors” (2017) one finds IC50 data, which are given here for 41 compounds.

Turning to `Cc1ccc2c(N)c(C(=O)NCCc3ccc(N4CCCC5(CCCNC5)C4)cc3)sc2n1` (centres undefined), the IC50 in assay [1] and in assay [2] was 0.2 to 2 µM throughout.

In assay [1], `Cc1ccc2c(N)c(C(=O)NCCc3ccc(N4CC[C@H]5CNC[C@H]5C4)cc3)sc2n1` came in with a half-maximal inhibitory concentration (IC50) of 0.2 to 2 µM.

For the compound `Cc1ccc2c(N)c(C(=O)NCCc3ccc(N4CCC5(CC4)CNC5)cc3)sc2n1`, the IC50 was less than 0.2 µM in assay [1] and 0.2 to 2 µM in assay [2].

Consider `Cc1ccc2c(N)c(C(=O)NCCc3ccc(N4CCCC5(CCNCC5)C4)cc3)sc2n1`, for which the IC50 in assay [1] was less than 0.2 µM; in assay [2] it was 0.2 to 2 µM.

On to `Cc1ccc2c(N)c(C(=O)NCCc3ccc(N4CCN[C@H](C(C)C)C4)cc3)sc2n1`, for which the IC50 in assay [1] is less than 0.2 µM; in assay [2] it was 0.2 to 2 µM.

Regarding `Cc1ccc2c(N)c(C(=O)NCCc3ccc(N4CCN[C@H](C)C4)cc3)sc2n1`, the figures for the IC50 in assay [1] and in assay [2] were less than 0.2 µM and 0.2 to 2 µM, respectively.

Consider `Cc1ccc2c(N)c(C(=O)NCCc3ccc(N4CCCC45CCCNC5)cc3)sc2n1` (centres undefined), for which the concentration for half-maximal inhibition (IC50) is less than 0.2 µM in assay [1] and 0.2 to 2 µM in assay [2].

Take `Cc1ccc2c(N)c(C(=O)NCCc3ccc(N4CCNCC4)c(-c4ccccc4Cl)c3)sc2n1`: the IC50 in assay [1] and in assay [2] was 0.2 to 2 µM in each case.

Turning to `Cc1ccc2c(N)c(C(=O)NCCc3ccc(N4CCC5(CCCNC5)CC4)cc3)sc2n1`, the IC50 in assay [1] and in assay [2] was 0.2 to 2 µM each time.

On to `Cc1ccc2c(N)c(C(=O)NCCc3ccc(N4CC5(CNC5)C4)cc3)sc2n1`, for which the IC50 was 0.2 to 2 µM in assay [1] and 2 to 10 µM in assay [2].

On to `Cc1ccc2c(N)c(C(=O)NCCc3ccc(N4CC5(CCCN5)C4)cc3)sc2n1`, for which the IC50 in assay [1] is less than 0.2 µM; in assay [2] it was 0.2 to 2 µM.

The compound `Cc1ccc2c(N)c(C(=O)NCCc3ccc(N[C@@H]4CCNC4)cc3)sc2n1` registered an IC50 in assay [1] of less than 0.2 µM.

As to `Cc1ccc2c(N)c(C(=O)NCCc3ccc(N4CCC5(CCNC5)C4)cc3)sc2n1` (centres undefined), the results for the IC50 in assay [1] and in assay [2] were 0.2 to 2 µM and 2 to 10 µM, respectively.

Turning to `Cc1ccc2c(N)c(C(=O)NCCc3ccc(N(C)CC4CCCNC4)cc3)sc2n1` (centres undefined), the IC50 in assay [1] and in assay [2] was 0.2 to 2 µM each time.

For `Cc1ccc2c(N)c(C(=O)NCCc3ccc(N4CCC5(CCNC5)CC4)cc3)sc2n1`, the IC50 in assay [1] fell in the range of 0.2 to 2 µM.

As for `Cc1ccc2c(N)c(C(=O)NCCc3ccc(N4CCC(NC5CC5)C4)cc3)sc2n1` (centres undefined), the IC50 in assay [1] and in assay [2] was 0.2 to 2 µM throughout.

Take `Cc1ccc2c(N)c(C(=O)NCCc3ccc(N4CCC5(CCNCC5)C4)cc3)sc2n1`: the values for the IC50 in assay [1] and in assay [2] were 0.2 to 2 µM and 2 to 10 µM, respectively.

On to `Cc1cc(-c2cc(CCNC(=O)c3sc4nc(C)ccc4c3N)ccc2N2CCNCC2)ccn1`, for which the results for the IC50 in assay [1] and in assay [2] were 2 to 10 µM and 10 to 25 µM, respectively.

Consider `Cc1ccc2c(N)c(C(=O)NCCc3ccc(N4CCC5(CNCCO5)C4)cc3)sc2n1` (centres undefined), for which the IC50 in assay [1] was 0.2 to 2 µM; in assay [2] it was 2 to 10 µM.

For `Cc1ccc2c(N)c(C(=O)NCCc3ccc(N4CCNCC4)c(-c4ccccc4F)c3)sc2n1`, the IC50 in assay [1] fell in the range of 0.2 to 2 µM; in assay [2], 2 to 10 µM.

Take `Cc1ccc2c(N)c(C(=O)NCCc3ccc(N4CCNCC4)c(-c4ccc(F)cc4)c3)sc2n1`: the 50% inhibitory concentration (IC50) in assay [1] and in assay [2] was 2 to 10 µM in each case.

Consider `CN[C@H]1CCN(c2ccc(CCNC(=O)c3sc4nc(C)ccc4c3N)cc2)C1`, for which the IC50 in assay [1] and in assay [2] was 0.2 to 2 µM each time.

Regarding `Cc1ccc2c(N)c(C(=O)NCCc3ccc(N4C[C@H]5CNC[C@H]5C4)cc3)sc2n1`, the IC50 in assay [1] and in assay [2] was 0.2 to 2 µM throughout.

For `Cc1ccc2c(N)c(C(=O)NCCc3ccc(N4CCNCC4)c(-c4ccccc4C)c3)sc2n1`, the IC50 in assay [1] lay in the range of 0.2 to 2 µM; in assay [2] it was 2 to 10 µM.

`Cc1ccc2c(N)c(C(=O)NCCc3ccc(N4CCNC[C@@H]4C)cc3)sc2n1` registered an IC50 in assay [1] of less than 0.2 µM.

The compound `Cc1ccc2c(N)c(C(=O)NCCc3ccc(N4CCOC5(CCNCC5)C4)cc3)sc2n1` gave an IC50 in assay [1] of 0.2 to 2 µM.

On to `Cc1ccc2c(N)c(C(=O)NCCc3ccc(N4CCCC5(CCNC5)C4)cc3)sc2n1` (centres undefined), for which the IC50 in assay [1] and in assay [2] was 0.2 to 2 µM each time.

For the compound `Cc1ccc(-c2cc(CCNC(=O)c3sc4nc(C)ccc4c3N)ccc2N2CCNCC2)cc1`, the IC50 in assay [1] and in assay [2] was 2 to 10 µM throughout.

For the compound `Cc1ccc2c(N)c(C(=O)NCCc3ccc(N4CCNCC4)c(-c4cnn(C)c4)c3)sc2n1`, the IC50 was 0.2 to 2 µM in assay [1] and 2 to 10 µM in assay [2].

`Cc1ccc2c(N)c(C(=O)NCCc3ccc(N4CCCNCC4)cc3)sc2n1`: the 50% inhibitory concentration (IC50) in assay [1] and in assay [2] was 0.2 to 2 µM throughout.

On to `Cc1ccc2c(N)c(C(=O)NCCc3ccc(N4CCNC[C@H]4C)cc3)sc2n1`, for which the IC50 in assay [1] and in assay [2] was less than 0.2 µM in each case.

On to `Cc1ccc2c(N)c(C(=O)NCCc3ccc(N4CCNCC4)c(-c4ccc(Cl)cc4)c3)sc2n1`, for which the IC50 in assay [1] and in assay [2] was 2 to 10 µM each time.

For `CN[C@@H]1CCN(c2ccc(CCNC(=O)c3sc4nc(C)ccc4c3N)cc2)C1`, in assay [1], the IC50 was in the range of 0.2 to 2 µM.

For `Cc1ccc2c(N)c(C(=O)NCCc3ccc(N4CCNCC4)c(-c4cncnc4)c3)sc2n1`, the IC50 in assay [1] and in assay [2] was 0.2 to 2 µM in each case.

In assay [1], `CC(=O)Nc1ccc2c(N)c(C(=O)NCCc3ccc(N4CCNCC4)cc3)sc2n1` had an IC50 of 2 to 10 µM.

With `Cc1cccc(-c2cc(CCNC(=O)c3sc4nc(C)ccc4c3N)ccc2N2CCNCC2)c1`, the IC50 in assay [1] was in the range of 10 to 25 µM; in assay [2], 2 to 10 µM.

Turning to `Cc1ccc2c(N)c(C(=O)NCCc3ccc(N4CCN[C@@H](C(C)C)C4)cc3)sc2n1`, the IC50 in assay [1] and in assay [2] was 0.2 to 2 µM throughout.

Take `COCCn1cc(-c2cc(CCNC(=O)c3sc4nc(C)ccc4c3N)ccc2N2CCNCC2)cn1`: the IC50 in assay [1] and in assay [2] was 2 to 10 µM each time.

In the case of `Cc1ccc2c(N)c(C(=O)NCCc3ccc(N4CCNCC4)c(-c4cccc(Cl)c4)c3)sc2n1`, the IC50 in assay [1] and in assay [2] was 2 to 10 µM throughout.

`CNC1CCN(c2ccc(CCNC(=O)c3sc4nc(C)ccc4c3N)cc2)CC1` registered an IC50 in assay [1] of 0.2 to 2 µM.

Consider `Cc1ccc2c(N)c(C(=O)NCCc3ccc(N4CCNCC4)c(-c4cccc(F)c4)c3)sc2n1`, for which the IC50 in assay [1] and in assay [2] was 2 to 10 µM in each case.
